Results reported in patent EP4417602A1, “SUBSTITUTED PYRAZOLE CARBOXAMIDES, SALTS THEREOF AND THEIR USE AS HERBICIDALLY ACTIVE SUBSTANCES” (Bayer AG, priority 2023, dated 2024).

Tests used:
AMARE = assay: B. Herbicidal post-emergence action on harmful plants (Tables B); format: in vivo, Amaranthus retroflexus; details: application rate 1280 g/ha; Table B8
In short: (§1)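 Activity was scored visually as % damage (100% = dead, 0% = like untreated) about 3 weeks after treatment. Plants at the one-leaf stage, 2-3 weeks old, were sprayed with WP/EC formulations plus 0.5% additive (600 L/ha water, up to 1280 g/ha). Plants were grown in sandy loam in a greenhouse.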

POLCO = assay: C. Herbicidal pre-emergence action, weed and crop plants (Tables C); format: in vivo, Polygonum convolvulus; details: application rate 320 g/ha; Table C9
Excerpt: Seeds of mono- and dicotyledonous weed plants and crop plants were sown, in plastic or organic planting pots, in sandy loam and covered with soil. The compounds according to the invention, formulated in the form of wettable powders (WP) or as emulsifiable concentrates (EC), were applied to the surface of the covering soil as aqueous suspension or emulsion, with the addition of 0.5% of an additive, at an application rate of 6001 of water/ha (converted). Following treatment, the pots were placed in a greenhouse and kept under optimum growth conditions for the test plants. The visual grading of the damage to the test plants was carried out after ca. 3 weeks in comparison to untreated controls (herbicidal effect in percent (%): 100% effect = plants have died off, 0% effect = as control plants). Tables C1 to C12 below show the effects of selected compounds of the general formula (I) according to table 1 on various harmful plants and an application rate corresponding to 320 g/ha or below obtained by the experimental procedure mentioned above. Table C1: pre-emergence activity at 320g/ha against KCHSC in %

ABUTH = assay: A. Herbicidal pre-emergence action on harmful plants (Tables A); format: in vivo, Abutilon theophrasti; details: application rate 1280 g/ha; visual grading after ca. 3 weeks vs untreated controls; 100% = plants have died off, 0% = as control plants
Excerpt: Seeds of mono- and dicotyledonous weed plants were sown in plastic pots (double sowings with one species of mono- and one species of dicotyledonous weed plants per pot), in sandy loam, and covered with soil. The compounds according to the invention, formulated in the form of wettable powders (WP) or as emulsifiable concentrates (EC), were applied to the surface of the covering soil as aqueous suspension or emulsion, with the addition of 0.5% of an additive, at an application rate of 6001 of water per hectare (converted). Following treatment, the pots were placed in a greenhouse and kept under optimum growth conditions for the test plants. The visual grading of the damage to the test plants was carried out after ca. 3 weeks in comparison to untreated controls (herbicidal effect in percent (%): 100% effect = plants have died off, 0% effect = as control plants). Tables A1 to A12, below, show the effects of selected compounds of the general formula (I) according to table 1 on various harmful plants and an application rate corresponding to 1280 g/ha or below obtained by the experimental procedure mentioned above. Table A1: pre-emergence activity at 1280g/ha against ABUTH in %

MATIN [1] = assay: B. Herbicidal post-emergence action on harmful plants (Tables B); format: in vivo, Matricaria inodora; details: application rate 1280 g/ha; Table B4a
In short: as §1

LOLRI = assay: E. Herbicidal post-emergence action, weed and crop plants (Tables E); format: in vivo, Lolium rigidum; details: application rate 320 g/ha, visual assessment after ca. 3 weeks
Excerpt: (§2) Seeds of mono- and dicotyledonous weed plants and crop plants were sown, in plastic or organic planting pots, in sandy loam, covered with soil and grown in a greenhouse under controlled growth conditions. 2 to 3 weeks after sowing, the test plants were sprayed in the single-leaf stage. The compounds according to the invention, formulated in form of wettable powders (WP) or as emulsifiable concentrates (EC), were sprayed onto the green plant parts as aqueous suspension or emulsion, with the addition of 0.5% of an additive, at an application rate of 6001 of water/ha (converted). The test plants were placed in the greenhouse for ca. 3 weeks under optimum growth conditions, and then the effect of the preparations was assessed visually in comparison with untreated controls (herbicidal effect in percent (%): 100% effect = plants have died off, 0% effect = as control plants). Tables E1 to E7 below show the effects of selected compounds of the general formula (I) according to table 1 on various harmful plants and an application rate corresponding to 320 g/ha or below obtained by the experimental procedure mentioned above. Table E1: post-emergence activity at 320g/ha against ALOMY in %

MATIN [2] = assay: as above; format: in vivo, Matricaria inodora; details: application rate 320 g/ha, visual assessment after ca. 3 weeks
Excerpt: as §2

SETVI = assay: as above; format: in vivo, Setaria viridis; details: application rate 320 g/ha, visual assessment after ca. 3 weeks
Excerpt: as §2

VERPE = assay: as above; format: in vivo, Veronica persica; details: application rate 320 g/ha, visual assessment after ca. 3 weeks
Excerpt: as §2

| Structure (SMILES) | post-emergence activity against AMARE (AMARE) [%] | post-emergence activity against LOLRI in % (LOLRI) [%] | post-emergence activity against SETVI in % (SETVI) [%] | further results |
| --- | --- | --- | --- | --- |
| COCc1nn(C)cc1C(=O)N1CCCC1Cc1ccccc1F (racemic) [Example I-002] | 90 | – | – | – |
| Cn1cc(C(=O)N2CCCC2Cc2ccccc2F)c(COc2ccccc2)n1 (racemic) [Example I-006] | 90 | – | – | – |
| C=C(c1ccccc1F)C1CCCN1C(=O)c1cn(C)nc1COC (racemic) [Example I-023] | – | – | – | pre-emergence activity against POLCO (POLCO): 80% |
| COCc1c(C(=O)N2CCCC2Cc2ccccc2Cl)cnn1C (racemic) [Example I-170] | – | 80 | – | pre-emergence activity against ABUTH (ABUTH): 90%; post-emergence activity against MATIN (MATIN [1]): 90%; post-emergence activity against MATIN in % (MATIN [2]): 80% |
| COCc1nn(C)cc1C(=O)N1CCCC1Cc1ccccc1F (single isomer, unassigned) [Example I-003] | – | 80 | 80 | post-emergence activity against VERPE in % (VERPE): 80% |
| COCc1nn(C)cc1C(=O)N1CCCC1C(O)c1ccccc1F (single isomer, unassigned) [Example I-053] | – | – | 80 | – |
